# Data as given in the NIST ThermoML archive (doi:10.1021/je0256481).
# Numbers after ± are expanded uncertainties.
# Test: activity coefficient (dimensionless); of the first substance listed, at infinite dilution; xn = mol fraction of the nth substance listed
# Conditions: Liquid, x1 = 0
Compound,activity coefficient (298.15 K),activity coefficient (313.15 K),activity coefficient (323.15 K)
C=CCCCCC [1-heptene] + CCCCCCn1cc[n+](C)c1.F[P-](F)(F)(F)(F)F,15.3 ± 1.4,13.8 ± 1.3,12.4 ± 1.1
C=CCCCC [hex-1-ene] + CCCCCCn1cc[n+](C)c1.F[P-](F)(F)(F)(F)F,10.4 ± 0.96,9.09 ± 0.83,7.88 ± 0.72
CCCCCCCC [octane] + CCCCCCn1cc[n+](C)c1.F[P-](F)(F)(F)(F)F,44.7 ± 4.2,37.1 ± 3.5,32 ± 3
C1CCCCC1 [cyclohexane] + CCCCCCn1cc[n+](C)c1.F[P-](F)(F)(F)(F)F,12.7 ± 1.2,10.6 ± 0.97,9.38 ± 0.86
CCCCCCC [heptane] + CCCCCCn1cc[n+](C)c1.F[P-](F)(F)(F)(F)F,30.6 ± 2.8,25.7 ± 2.4,22.2 ± 2
C1CCCCCCC1 [cyclooctane] + CCCCCCn1cc[n+](C)c1.F[P-](F)(F)(F)(F)F,,18.7 ± 1.7,12.2 ± 1.1
C#CCCCC [1-hexyne] + CCCCCCn1cc[n+](C)c1.F[P-](F)(F)(F)(F)F,,2.78 ± 0.25,2.82 ± 0.26
C#CCCCCC [1-heptyne] + CCCCCCn1cc[n+](C)c1.F[P-](F)(F)(F)(F)F,,4.03 ± 0.37,4.07 ± 0.37
C1CCCC1 [cyclopentane] + CCCCCCn1cc[n+](C)c1.F[P-](F)(F)(F)(F)F,8.53 ± 0.78,7.21 ± 0.66,6.08 ± 0.56
C#CCCCCCC [1-octyne] + CCCCCCn1cc[n+](C)c1.F[P-](F)(F)(F)(F)F,,5.86 ± 0.54,5.81 ± 0.53
CCCCCC [hexane] + CCCCCCn1cc[n+](C)c1.F[P-](F)(F)(F)(F)F,22.5 ± 5.4,19.2 ± 4.4,15 ± 3
CCCCC [pentane] + CCCCCCn1cc[n+](C)c1.F[P-](F)(F)(F)(F)F,13.7 ± 2.7,12.2 ± 2.4,8.48 ± 1.4
CO [methanol] + CCCCCCn1cc[n+](C)c1.F[P-](F)(F)(F)(F)F,1.94 ± 0.17,1.6 ± 0.13,1.44 ± 0.11
C1CCCCCC1 [cycloheptane] + CCCCCCn1cc[n+](C)c1.F[P-](F)(F)(F)(F)F,,14.2 ± 1.3,11.8 ± 1.1
C=CCCCCCC [oct-1-ene] + CCCCCCn1cc[n+](C)c1.F[P-](F)(F)(F)(F)F,21.9 ± 2,19.5 ± 1.8,18 ± 1.7
c1ccccc1 [benzene] + CCCCCCn1cc[n+](C)c1.F[P-](F)(F)(F)(F)F,1.03 ± 0.05,1.04 ± 0.06,1.07 ± 0.06
